Experimental data as given in patent US20260159486A1, “BENZO[H]QUINAZOLINE-4-AMINE DERIVATIVES FOR THE TREATMENT OF CANCER” (Redona Therapeutics, Inc., priority 2021, published 2026).

Tests used:
recombinant human CLK3 = target: T1, recombinant human CLK3 (Homo sapiens, UniProt P49761); assay: CLK3 kinase assay (LANCE Ultra); type: biochemical; conditions: CLK3 0.5 nM, ATP 300 μM, 3 hours at 30° C.
T1 construct: purchased Thermo Fisher Scientific PV3826
Method in brief: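 Recombinant human CLK3 (0.5 nM) with ULight-CREBtide (50 nM) and 300 μM ATP, 3 h at 30 °C in kinase buffer; EDTA stop, then Eu-anti-phospho-CREB antibody (2 nM, 1 h RT), TR-FRET read at 665/620 nm. Inhibition normalized to DMSO and no-ATP wells; IC50 from 4-parameter fit, ten 1:3 concentrations in duplicate.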

MDA-MB-231 cells = assay: MDA-MB-231 proliferation assay; type: cell-based; conditions: YO-PRO-1 Iodide readout
Method in brief: (§1)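 Cells seeded at 750 per well, treated next day for 72 h at 37 °C with 0.5% final DMSO. Cell number read by YO-PRO-1 fluorescence after lysis, normalized to DMSO (100%) and time-zero cells (0%). GI50 from 4-parameter logistic fit, maximum constrained to 100%.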

CAL-51 cells = assay: CAL-51 proliferation assay; type: cell-based; conditions: YO-PRO-1 Iodide readout
Method in brief: as §1

[1] = tested on: phospho-SRSF6 in MDA-MB-468 cells; assay: Inhibition of phospho-SRSF6 levels in MDA-MB-468 cells (Western blot); type: cell-based; conditions: Homo sapiens, 2 hours, compared to DMSO control; for inhibition at 0.01 µM: 10 nM, read-out: >50% p-SRSF6 reduction at 10 nM; for inhibition at 0.1 µM: 100 nM, read-out: >50% p-SRSF6 reduction at 100 nM
Procedure: FIG. 1: FIG. 1 provides a representative Western blot showing reduction of phosphorylated-SRSF6 (P—SRSF6) in MDA-MB 468 cells by compounds of the invention. GAPDH was probed for by Western blotting to control for equal protein loading and for normalization of samples. The numbers below the blots show percent inhibition of the P—SRSF6 signal at 100 nM (A) or 10 nM (B) compared to DMSO control.
Assessment of Inhibition of Phospho-SRSF6 Levels in MDA-MB-468 Cells
MDA-MB-468 cells (ATCC, HTB-132) were cultured in DMEM (BioConcept cat. no. 1-26F03) supplemented with 10% FBS (Sigma cat. no. F9665), […] (Sigma cat. no. S8636), 1% Penicillin-Streptomycin (BioConcept cat. no. 4-01FOO-H). When cells reached a density of 70% o in 6-well plates (TPP cat. no. 92006), they were treated either with the test compound vehicle DMSO, or with experimental compounds at a final concentration of either 10 or 100 nM for 2 hours. Thereafter, the culture medium was removed and cells were collected by scraping in Lysis Buffer (20 mM Tris HCl pH7.5, 150 mM NaCl, 1 mM EGTA, 1 mM EDTA, 1% o Triton and 1% o NP-40) containing protease and phosphatase inhibitors (Halt™ Protease&Phosphatase inhibitor cocktail 100× ThermioScientific cat. no. 1861281) and 1 mM PMSF (Fluka cat. no. 93482). Cleared lysates were stored in Eppendorfftubes at −80° C. until use, and protein concentration in lysates was determined using Pierce 660 nm Protein Assay Reagent (ThermioScientific cat. no. 22660). 20 μg proteins were diluted in 4× Laemmli buffer (Biorad cat. no. 161-0747) containing 10% beta-mercaptoethanol, separated by SDS-PAGE using 10% gels, and then transferred to PVDF membranes (Trans Blot Turbo Transfer Pack BioRad cat. no. 1704156) by Trans-Blot® Turbo™ System semidry blotting methodology (BioRad). Primary antibodies were incubated in TBS-0.1% Tween-20 buffer containing 3% BSA Bovine Albumin Fr.V (Millipore cat. no. 81-053-3) overnight at 4° C. The following primary antibodies were used: Mouse anti-phosphoepitope SR proteins clone 1H4 (Millipore cat. no. MABE50) diluted 1:5000, and rabbit anti-GAPDH clone 14C10 (Cell Signaling cat. no. 2118S) to control for equal protein loading, diluted 1:2000. HRP-conjugated secondary antibodies were incubated one hour at room temperature diluted 1:5000 in TBS-0.1% Tween-20 buffer containing […] nonfat-dried bovine milk (Sigma cat. no. M7409). The following secondary antibodies were used: Goat anti-mouse-HRP (Jackson cat. no. 115-035-146) and goat anti-rabbit-HRP (Jackson cat. no. 111-035-144). Membranes were incubated with ECL Prime Western Blot Detection Reagent (Amersham cat. no. RPN2236) to detect specific signals using Fusion SOLO S device (Vilber Lourmat). Pixel intensity of the phopsho-SRSF6 (MW 55 kDa in reference to markers) and GAPDH (MW 37 kDa) signals in the Western blots were determined using Evolution-Capt image analysis software (v17.01, Vilber Lourmat). DMSO control was used to set the phospho-SRSF6 signal at baseline, phospho-SRSF6 signals for each sample were normalized by the respective GAPDH signals and percent intensity of P—SRSF6 signal at 10 and 100 nM compound compared to DMSO control was calculated (see FIG. 1).

T1 sequence (P49761 whole entry): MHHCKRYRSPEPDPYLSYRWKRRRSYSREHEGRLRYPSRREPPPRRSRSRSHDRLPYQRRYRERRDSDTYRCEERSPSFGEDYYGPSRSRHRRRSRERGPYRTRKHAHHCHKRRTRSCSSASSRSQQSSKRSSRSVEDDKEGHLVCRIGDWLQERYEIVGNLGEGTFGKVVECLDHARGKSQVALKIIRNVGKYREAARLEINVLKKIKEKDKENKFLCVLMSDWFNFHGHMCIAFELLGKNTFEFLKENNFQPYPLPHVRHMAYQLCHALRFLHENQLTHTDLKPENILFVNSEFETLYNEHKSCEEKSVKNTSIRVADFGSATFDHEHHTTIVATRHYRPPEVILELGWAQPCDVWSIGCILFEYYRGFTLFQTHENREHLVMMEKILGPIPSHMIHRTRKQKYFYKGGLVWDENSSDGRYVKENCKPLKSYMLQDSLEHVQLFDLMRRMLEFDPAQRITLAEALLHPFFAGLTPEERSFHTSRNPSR

| IC50 (recombinant human CLK3) | GI50 (MDA-MB-231 cells; 72 hours) | GI50 (MDA-MB-231 cells; Homo sapiens, MDA-MB-231, 72 h) | SMILES | GI50 (CAL-51 cells; 72 hours) | inhibition at 0.01 µM [1] | inhibition at 0.1 µM [1] | GI50 (CAL-51 cells; Homo sapiens, CAL-51, 72 h) |
| --- | --- | --- | --- | --- | --- | --- | --- |
| < 30 nM |  | 100 to 2000 nM | CCN(CC)c1c(O[C@H]2CC[C@H](N)CC2)ccc2c1CC(C)(C)c1c(N)ncnc1-2 [Example 7, 8-(trans-4-aminocyclohexoxy)-N7,N7-diethyl-5,5-dimethyl-6H-benzo[h]quinazoline-4,7-diamine] |  | > 50% | > 50% | 100 to 2000 nM |
| < 30 nM |  | < 100 nM | CN(CCO)c1c(O[C@H]2CC[C@H](N)CC2)ccc2c1CC(C)(C)c1c(N)ncnc1-2 [Example 12, 2-[[4-amino-8-(trans-4-aminocyclohexoxy)-5,5-dimethyl-6H-benzo[h]quinazolin-7-yl]-methyl-amino]ethanol] |  | < 50% | > 50% | < 100 nM |
| < 30 nM |  | < 100 nM | CN(C)c1c(O[C@H]2CC[C@H](N)CC2)ccc2c1CC(C)(C)c1c(N)ncnc1-2 [Example 20, 8-(trans-4-aminocyclohexoxy)-N7,N7,5,5-tetramethyl-6H-benzo[h]quinazoline-4,7-diamine] |  | > 50% | > 50% | < 100 nM |
| < 30 nM |  | < 100 nM | CN(CC#N)c1c(O[C@H]2CC[C@@H](N)CC2)ccc2c1CC(C)(C)c1c(N)ncnc1-2 [Example 30, 2-[[4-amino-8-(cis-4-aminocyclohexoxy)-5,5-dimethyl-6H-benzo[h]quinazolin-7-yl]-methyl-amino]acetonitrile] |  | > 50% | > 50% | < 100 nM |
| 30 to 100 nM |  | 100 to 2000 nM | CN(CC(C)(C)O)c1c(O[C@H]2CC[C@H](N)CC2)ccc2c1CC(C)(C)c1c(N)ncnc1-2 [Example 40, 1-[[4-amino-8-(trans-4-aminocyclohexoxy)-5,5-dimethyl-6H-benzo[h]quinazolin-7-yl]-methyl-amino]-2-methyl-propan-2-ol] |  | > 50% | > 50% | < 100 nM |
| < 30 nM |  | < 100 nM | CN(CCC#N)c1c(O[C@H]2CC[C@H](N)CC2)ccc2c1CC(C)(C)c1c(N)ncnc1-2 [Example 46, 3-[[4-amino-8-(trans-4-aminocyclohexoxy)-5,5-dimethyl-6H-benzo[h]quinazolin-7-yl]-methyl-amino]propanenitrile] |  | > 50% | > 50% | < 100 nM |

Further lines, the molecule ahead of its results:

| SMILES | IC50 (recombinant human CLK3) | GI50 (MDA-MB-231 cells; 72 hours) | GI50 (MDA-MB-231 cells; Homo sapiens, MDA-MB-231, 72 h) | GI50 (CAL-51 cells; 72 hours) | inhibition at 0.01 µM [1] | inhibition at 0.1 µM [1] | GI50 (CAL-51 cells; Homo sapiens, CAL-51, 72 h) |
| --- | --- | --- | --- | --- | --- | --- | --- |
| CC1(C)Cc2c(ccc(O[C@H]3CC[C@H](N)CC3)c2N2CCC(O)C2)-c2ncnc(N)c21 (single isomer, unassigned) [Example 16, 1-[4-amino-8-(trans-4-aminocyclohexoxy)-5,5-dimethyl-6H-benzo[h]quinazolin-7-yl]pyrrolidin-3-ol] | < 30 nM | < 100 nM |  | < 100 nM | > 50% | > 50% |  |
| CCNc1c(O[C@H]2CC[C@H](N)CC2)ccc2c1CC(C)(C)c1c(N)ncnc1-2 [Example 8, 8-(trans-4-aminocyclohexoxy)-N7-ethyl-5,5-dimethyl-6H-benzo[h]quinazoline-4,7-diamine] | 30 to 100 nM |  | 100 to 2000 nM |  | < 50% | > 50% | < 100 nM |
| CC1(C)Cc2c(ccc(O[C@H]3CC[C@H](N)CC3)c2-n2cccc2)-c2ncnc(N)c21 [Example 17, 8-(trans-4-aminocyclohexoxy)-5,5-dimethyl-7-pyrrol-1-yl-6H-benzo[h]quinazolin-4-amine] | < 30 nM |  | < 100 nM |  | < 50% | > 50% | < 100 nM |
| Nc1ncnc2c1C1(CCCC1)Cc1c-2ccc(O[C@H]2CC[C@H](N)CC2)c1N [Example 37, 8-(trans-4-aminocyclohexoxy)spiro[6H-benzo[h]quinazoline-5,1′-cyclopentane]-4,7-diamine] | 30 to 100 nM |  | 100 to 2000 nM |  | > 50% | > 50% | < 100 nM |
| CC1(C)Cc2c(ccc(O[C@H]3CC[C@H](N4CCOCC4)CC3)c2NC[C@@H]2CNC(=O)O2)-c2ncnc(N)c21 [Example 131, (5R)-5-[[[4-amino-5,5-dimethyl-8-(trans-4-morpholinocyclohexoxy)-6H-benzo[h]quinazolin-7-yl]amino]methyl]oxazolidin-2-one] | < 30 nM |  | 100 to 2000 nM |  |  |  | 100 to 2000 nM |
| CC1(C)Cc2c(ccc(Br)c2N(CCC#N)C[C@@H]2CNC(=O)O2)-c2ncnc(N)c21 [Example 132, 3-[(4-amino-8-bromo-5,5-dimethyl-6H-benzo[h]quinazolin-7-yl)-[[(5S)-2-oxooxazolidin-5-yl]methyl]amino]propanenitrile] | < 30 nM |  | 100 to 2000 nM |  |  |  | 100 to 2000 nM |
